System: 755483-174-R-J1-PDC complex spheroid growth, percent test/control
Assay: Anticancer human tumor 755483-174-R-J1-PDC patient-derived rhabdomyosarcoma cell line growth inhibition [Asc]
Details: for IC50: curve of first compound; for viability, T/C: stronger effect = lower value
In short: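 Spheroid model: tumor line + HUVEC + hMSC. Single agents and combinations; top conc. at/near clinical Cmax (10 microM if undetermined), half-log dilutions. DMSO stocks at 800-fold test concentration.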
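Further: spheroids exposed to compounds for seven days before readout.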

With Cc1nc(N2CCC3(CC2)COC(C)C3N)c(CO)nc1Sc1ccnc(N)c1Cl (stereo not given) + Cc1c(S(C)(=O)=O)c(-c2cc(F)cc(N3CCN(c4ccc(NS(=O)(=O)c5ccc(NC(CCN6CCC(C(=O)OCCCP(=O)(O)O)CC6)CSc6ccccc6)c(S(=O)(=O)C(F)(F)F)c5)cc4)CC3)c2)c(-c2ccc(Cl)cc2)n1C(C)C the IC50 (second compound 0.1 µM) was < 9.49 nM, the IC50 (second compound 0.316 µM) was < 9.49 nM and the IC50 (second compound 1 µM) was < 9.49 nM. The IC50 (second compound 3.16 µM) was < 9.49 nM, the IC50 (second compound 10 µM) was < 9.49 nM and the viability, T/C (second compound 0.1 µM, first compound 0.00949 µM) was 49.6%. For the same molecule, the viability, T/C (second compound 0.1 µM, first compound 0.03 µM) was 46.2%, the viability, T/C (second compound 0.1 µM, first compound 0.0949 µM) was 40.3% and the viability, T/C (second compound 0.1 µM, first compound 0.3 µM) was 26.5%. For the same molecule, the viability, T/C (second compound 0.1 µM, first compound 0.949 µM) was 14.2%, the viability, T/C (second compound 0.1 µM, first compound 3 µM) was 13.8% and the viability, T/C (second compound 0.316 µM, first compound 0.00949 µM) was 42.4%. The viability, T/C (second compound 0.316 µM, first compound 0.03 µM) was 43.5%, the viability, T/C (second compound 0.316 µM, first compound 0.0949 µM) was 34.6% and the viability, T/C (second compound 0.316 µM, first compound 0.3 µM) was 23%. For the same molecule, the viability, T/C (second compound 0.316 µM, first compound 0.949 µM) was 12.7%, the viability, T/C (second compound 0.316 µM, first compound 3 µM) was 9.74% and the viability, T/C (second compound 1 µM, first compound 0.00949 µM) was 33.5%. It also gave a viability, T/C (second compound 1 µM, first compound 0.03 µM) of 33.9%, a viability, T/C (second compound 1 µM, first compound 0.0949 µM) of 38.6% and a viability, T/C (second compound 1 µM, first compound 0.3 µM) of 21.9%. The viability, T/C (second compound 1 µM, first compound 0.949 µM) was 17.7%, the viability, T/C (second compound 1 µM, first compound 3 µM) was 10.4% and the viability, T/C (second compound 3.16 µM, first compound 0.00949 µM) was 26.5%. It also gave a viability, T/C (second compound 3.16 µM, first compound 0.03 µM) of 47.5%, a viability, T/C (second compound 3.16 µM, first compound 0.0949 µM) of 26.4% and a viability, T/C (second compound 3.16 µM, first compound 0.3 µM) of 21.2%. For the same molecule, the viability, T/C (second compound 3.16 µM, first compound 0.949 µM) was 16.8%, the viability, T/C (second compound 3.16 µM, first compound 3 µM) was 10.5% and the viability, T/C (second compound 10 µM, first compound 0.00949 µM) was 33.3%. It also gave a viability, T/C (second compound 10 µM, first compound 0.03 µM) of 36%, a viability, T/C (second compound 10 µM, first compound 0.0949 µM) of 25.8% and a viability, T/C (second compound 10 µM, first compound 0.3 µM) of 23.6%. For the same molecule, the viability, T/C (second compound 10 µM, first compound 0.949 µM) was 9.38% and the viability, T/C (second compound 10 µM, first compound 3 µM) was 6.34%.

Reference: PubChem BioAssay AID1963434 (Molecular Pharmacology Branch, DTP, NCI, 2024)
